US8114991B2, “Amino-1,3,5-triazines N-substituted with chiral bicyclic radicals, process for their preparation, compositions thereof, and their use as herbicides and plant growth regulators” (Bayer Cropscience AG, priority 2003, dated 2012)

Experiments:
[1] = tested on: harmful plants such as Stellaria media, Lolium multiforum, Amaranthus retroflexus, Sinapis alba, Avena sativa and Setaria viridis; assay: Pre-emergence effect on weeds (greenhouse pot test); assay type: in vivo; details: application rate of 1 kg or less of active ingredient per hectare; scored after 3 to 4 weeks by comparison with untreated controls
How it was run: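 Seeds or rhizome pieces sown in sandy loam; test compounds (wettable powder or emulsion concentrate) applied pre-emergence to soil surface as aqueous suspension/emulsion at various dosages, 600 to 800 l water/ha. Greenhouse; plant/emergence damage scored visually after 3 to 4 weeks versus untreated controls.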

[2] = tested on: harmful plants such as Sinapis alba, Echinochloa crus-galli, Lolium multiflorum, Stellaria media, Cyperus iria, Amaranthus retroflexus, Setaria viridis, Avena …; assay: Post-emergence effect on weeds (greenhouse pot test); assay type: in vivo; details: application rate of 2 kg or less of active ingredient per hectare; treated in the three-leaf stage; scored after approx. 3 to 4 weeks by comparison with untreated controls

## Nc1nc(CCl)nc(N[C@@H]2CCCc3ccccc32)n1 [Compound 8.117]
[1]
  pre-emergence control of harmful plants (plant or emergence damage scored visually): very good pre-emergence control
[2]
  herbicidal post-emergence activity against harmful plants (scored visually): very good herbicidal post-emergence activity

## CC1(c2nc(N)nc(N[C@@H]3CCc4ccccc43)n2)CC1 [Compound 8.148]
[1]
  pre-emergence control of harmful plants (plant or emergence damage scored visually): very good pre-emergence control
[2]
  herbicidal post-emergence activity against harmful plants (scored visually): very good herbicidal post-emergence activity

## CC1(c2nc(N)nc(N[C@@H]3CCCc4ccccc43)n2)CC1 [Compound 8.152]
[1]
  pre-emergence control of harmful plants (plant or emergence damage scored visually): very good pre-emergence control
[2]
  herbicidal post-emergence activity against harmful plants (scored visually): very good herbicidal post-emergence activity

## Nc1nc(N[C@@H]2CCc3ccccc32)nc(C2(F)CC2)n1 [Compound 8.160]
[1]
  pre-emergence control of harmful plants (plant or emergence damage scored visually): very good pre-emergence control
[2]
  herbicidal post-emergence activity against harmful plants (scored visually): very good herbicidal post-emergence activity

## Nc1nc(N[C@@H]2CCCc3ccccc32)nc(C2(F)CC2)n1 [Compound 8.170]
[1]
  pre-emergence control of harmful plants (plant or emergence damage scored visually): very good pre-emergence control
[2]
  herbicidal post-emergence activity against harmful plants (scored visually): very good herbicidal post-emergence activity

## Nc1nc(N[C@@H]2CCc3ccccc32)nc(C2(Cl)CC2)n1 [Compound 8.183]
[1]
  pre-emergence control of harmful plants (plant or emergence damage scored visually): very good pre-emergence control
[2]
  herbicidal post-emergence activity against harmful plants (scored visually): very good herbicidal post-emergence activity

## Nc1nc(N[C@@H]2CCCc3ccccc32)nc(C2(Cl)CC2)n1 [Compound 8.187]
[1]
  pre-emergence control of harmful plants (plant or emergence damage scored visually): very good pre-emergence control
[2]
  herbicidal post-emergence activity against harmful plants (scored visually): very good herbicidal post-emergence activity

## CC(C)(F)c1nc(N)nc(N[C@@H]2CCc3ccccc32)n1 [Compound 8.195]
[1]
  pre-emergence control of harmful plants (plant or emergence damage scored visually): very good pre-emergence control
[2]
  herbicidal post-emergence activity against harmful plants (scored visually): very good herbicidal post-emergence activity

## Cc1ccc2c(c1)[C@H](Nc1nc(N)nc(C(C)(C)F)n1)CC2 [Compound 8.196]
[1]
  pre-emergence control of harmful plants (plant or emergence damage scored visually): very good pre-emergence control
[2]
  herbicidal post-emergence activity against harmful plants (scored visually): very good herbicidal post-emergence activity

## CC(C)(F)c1nc(N)nc(N[C@@H]2CCc3ccc(F)cc32)n1 [Compound 8.197]
[1]
  pre-emergence control of harmful plants (plant or emergence damage scored visually): very good pre-emergence control
[2]
  herbicidal post-emergence activity against harmful plants (scored visually): very good herbicidal post-emergence activity

## Cc1cc2c(cc1C)[C@H](Nc1nc(N)nc(C(C)(C)F)n1)CC2 [Compound 8.201]
[1]
  pre-emergence control of harmful plants (plant or emergence damage scored visually): very good pre-emergence control
[2]
  herbicidal post-emergence activity against harmful plants (scored visually): very good herbicidal post-emergence activity

## CC(C)(F)c1nc(N)nc(N[C@@H]2CCCc3ccccc32)n1 [Compound 8.205]
[1]
  pre-emergence control of harmful plants (plant or emergence damage scored visually): very good pre-emergence control
[2]
  herbicidal post-emergence activity against harmful plants (scored visually): very good herbicidal post-emergence activity

## Cc1ccc2c(c1)[C@H](Nc1nc(N)nc(C(C)(C)F)n1)CCC2 [Compound 8.206]
[1]
  pre-emergence control of harmful plants (plant or emergence damage scored visually): very good pre-emergence control
[2]
  herbicidal post-emergence activity against harmful plants (scored visually): very good herbicidal post-emergence activity

## Cc1cc(C)c2c(c1)[C@H](Nc1nc(N)nc(C(C)(C)F)n1)CCC2 [Compound 8.209]
[1]
  pre-emergence control of harmful plants (plant or emergence damage scored visually): very good pre-emergence control
[2]
  herbicidal post-emergence activity against harmful plants (scored visually): very good herbicidal post-emergence activity

## Cc1ccc2c(c1)[C@H](Nc1nc(N)nc(C(C)(C)F)n1)CCO2 [Compound 8.215]
[1]
  pre-emergence control of harmful plants (plant or emergence damage scored visually): very good pre-emergence control
[2]
  herbicidal post-emergence activity against harmful plants (scored visually): very good herbicidal post-emergence activity

## Cc1ccc2c(c1)[C@H](Nc1nc(N)nc(C(C)(C)Cl)n1)CC2 [Compound 8.219]
[1]
  pre-emergence control of harmful plants (plant or emergence damage scored visually): very good pre-emergence control
[2]
  herbicidal post-emergence activity against harmful plants (scored visually): very good herbicidal post-emergence activity

## CCCc1nc(N)nc(N[C@@H]2CCOc3ccc(C)cc32)n1 [Compound 8.231]
[1]
  pre-emergence control of harmful plants (plant or emergence damage scored visually): very good pre-emergence control
[2]
  herbicidal post-emergence activity against harmful plants (scored visually): very good herbicidal post-emergence activity

## COCc1nc(N)nc(N[C@@H]2CCc3ccccc32)n1 [Compound 8.233]
[1]
  pre-emergence control of harmful plants (plant or emergence damage scored visually): very good pre-emergence control
[2]
  herbicidal post-emergence activity against harmful plants (scored visually): very good herbicidal post-emergence activity

## COCc1nc(N)nc(N[C@@H]2CCCc3ccccc32)n1 [Compound 8.234]
[1]
  pre-emergence control of harmful plants (plant or emergence damage scored visually): very good pre-emergence control
[2]
  herbicidal post-emergence activity against harmful plants (scored visually): very good herbicidal post-emergence activity

## CC(C)(F)c1nc(N)nc(N[C@@H]2CCOc3c(F)cccc32)n1 [Compound 8.237]
[1]
  pre-emergence control of harmful plants (plant or emergence damage scored visually): very good pre-emergence control
[2]
  herbicidal post-emergence activity against harmful plants (scored visually): very good herbicidal post-emergence activity

## Cc1nc(N)nc(N[C@@H]2CCOc3c(F)cccc32)n1 [Compound 8.238]
[1]
  pre-emergence control of harmful plants (plant or emergence damage scored visually): very good pre-emergence control
[2]
  herbicidal post-emergence activity against harmful plants (scored visually): very good herbicidal post-emergence activity

## CCc1nc(N)nc(N[C@@H]2CCOc3c(F)cccc32)n1 [Compound 8.239]
[1]
  pre-emergence control of harmful plants (plant or emergence damage scored visually): very good pre-emergence control
[2]
  herbicidal post-emergence activity against harmful plants (scored visually): very good herbicidal post-emergence activity

## CCCc1nc(N)nc(N[C@@H]2CCOc3c(F)cccc32)n1 [Compound 8.240]
[1]
  pre-emergence control of harmful plants (plant or emergence damage scored visually): very good pre-emergence control
[2]
  herbicidal post-emergence activity against harmful plants (scored visually): very good herbicidal post-emergence activity

## Cc1ccc2c(c1C)OCC[C@H]2Nc1nc(N)nc(C(C)(C)F)n1 [Compound 8.241]
[1]
  pre-emergence control of harmful plants (plant or emergence damage scored visually): very good pre-emergence control
[2]
  herbicidal post-emergence activity against harmful plants (scored visually): very good herbicidal post-emergence activity

## CCc1nc(N)nc(N[C@@H]2CCOc3c2ccc(C)c3C)n1 [Compound 8.242]
[1]
  pre-emergence control of harmful plants (plant or emergence damage scored visually): very good pre-emergence control
[2]
  herbicidal post-emergence activity against harmful plants (scored visually): very good herbicidal post-emergence activity

## COc1ccc2c(c1)[C@H](Nc1nc(N)nc(C(C)(C)F)n1)CC2 [Compound 8.243]
[1]
  pre-emergence control of harmful plants (plant or emergence damage scored visually): very good pre-emergence control
[2]
  herbicidal post-emergence activity against harmful plants (scored visually): very good herbicidal post-emergence activity

## CCc1nc(N)nc(N[C@@H]2CCc3ccc(OC)cc32)n1 [Compound 8.244]
[1]
  pre-emergence control of harmful plants (plant or emergence damage scored visually): very good pre-emergence control
[2]
  herbicidal post-emergence activity against harmful plants (scored visually): very good herbicidal post-emergence activity

## CCc1ccc2c(c1)[C@H](Nc1nc(N)nc(C(C)(C)F)n1)CC2 [Compound 8.245]
[1]
  pre-emergence control of harmful plants (plant or emergence damage scored visually): very good pre-emergence control
[2]
  herbicidal post-emergence activity against harmful plants (scored visually): very good herbicidal post-emergence activity

## CCc1ccc2c(c1)[C@H](Nc1nc(C)nc(N)n1)CC2 [Compound 8.246]
[1]
  pre-emergence control of harmful plants (plant or emergence damage scored visually): very good pre-emergence control
[2]
  herbicidal post-emergence activity against harmful plants (scored visually): very good herbicidal post-emergence activity

## CCc1ccc2c(c1)[C@H](Nc1nc(N)nc(C(C)C)n1)CC2 [Compound 8.247]
[1]
  pre-emergence control of harmful plants (plant or emergence damage scored visually): very good pre-emergence control
[2]
  herbicidal post-emergence activity against harmful plants (scored visually): very good herbicidal post-emergence activity

## CCc1ccc2c(c1)[C@H](Nc1nc(N)nc(CC)n1)CC2 [Compound 8.248]
[1]
  pre-emergence control of harmful plants (plant or emergence damage scored visually): very good pre-emergence control
[2]
  herbicidal post-emergence activity against harmful plants (scored visually): very good herbicidal post-emergence activity

## CCCc1nc(N)nc(N[C@@H]2CCc3ccc(CC)cc32)n1 [Compound 8.249]
[1]
  pre-emergence control of harmful plants (plant or emergence damage scored visually): very good pre-emergence control
[2]
  herbicidal post-emergence activity against harmful plants (scored visually): very good herbicidal post-emergence activity

## CCc1ccc2c(c1)[C@H](Nc1nc(N)nc(CCSC(F)(F)F)n1)CC2 [Compound 8.250]
[1]
  pre-emergence control of harmful plants (plant or emergence damage scored visually): very good pre-emergence control
[2]
  herbicidal post-emergence activity against harmful plants (scored visually): very good herbicidal post-emergence activity

## Cc1ccc2c(c1)[C@H](Nc1nc(N)nc(CCSC(F)(F)F)n1)CCC2 [Compound 8.251]
[1]
  pre-emergence control of harmful plants (plant or emergence damage scored visually): very good pre-emergence control
[2]
  herbicidal post-emergence activity against harmful plants (scored visually): very good herbicidal post-emergence activity

## Cc1cc(C)c2c(c1)[C@H](Nc1nc(N)nc(C(C)C)n1)CCC2 [Compound 8.252]
[1]
  pre-emergence control of harmful plants (plant or emergence damage scored visually): very good pre-emergence control
[2]
  herbicidal post-emergence activity against harmful plants (scored visually): very good herbicidal post-emergence activity

## COCc1nc(N)nc(N[C@@H]2CCCc3c(C)cc(C)cc32)n1 [Compound 8.253]
[1]
  pre-emergence control of harmful plants (plant or emergence damage scored visually): very good pre-emergence control
[2]
  herbicidal post-emergence activity against harmful plants (scored visually): very good herbicidal post-emergence activity

## Nc1nc(N[C@@H]2CCCc3ccccc32)nc(C(F)(F)F)n1 [Compound 8.254]
[1]
  pre-emergence control of harmful plants (plant or emergence damage scored visually): very good pre-emergence control
[2]
  herbicidal post-emergence activity against harmful plants (scored visually): very good herbicidal post-emergence activity
